Laboratory results published in publication PMC8537711, “Mechanistic Insights into Binding of Ligands with Thiazolidinedione Warhead to Human Histone Deacetylase 4” (Pharmaceuticals, 2021).

What was measured:
cdHDAC4wt [1] = biological target: T1, cdHDAC4wt (Homo sapiens, UniProt P56524); assay: Association kinetics (semi continuous enzyme activity assay, kobs vs inhibitor concentration); assay type: biochemical; conditions: for residence time: 1/koff (two step) or 1/k−3 (one step), read-out: RT (KF), residence time from kinetic fit; for y-intercept of kobs plot (k−3): linear regression; for y-intercept of kobs plot (k−3) / k3 / k−3: one step model; for k3: slope of kobs vs ligand concentration; for k−3: y-intercept; for forward isomerization rate constant (k2) / koff / kon: two step model; for forward isomerization rate constant (k2) / koff: isomerization rate; for koff: y-axis intercept; for Ki: two step induced fit model, read-out: K1 (equilibrium constant of initial encounter complex)
T1 construct: consists of 410 amino acids (human HDAC4 T648-T1057) and has a molecular weight of 44.2 kDa; His6-SUMO (cleaved yes); made in house; host or cells: E. coli (BL21) DE3 pLysS, pET14b vector
T1 sequence (P56524 648-1057): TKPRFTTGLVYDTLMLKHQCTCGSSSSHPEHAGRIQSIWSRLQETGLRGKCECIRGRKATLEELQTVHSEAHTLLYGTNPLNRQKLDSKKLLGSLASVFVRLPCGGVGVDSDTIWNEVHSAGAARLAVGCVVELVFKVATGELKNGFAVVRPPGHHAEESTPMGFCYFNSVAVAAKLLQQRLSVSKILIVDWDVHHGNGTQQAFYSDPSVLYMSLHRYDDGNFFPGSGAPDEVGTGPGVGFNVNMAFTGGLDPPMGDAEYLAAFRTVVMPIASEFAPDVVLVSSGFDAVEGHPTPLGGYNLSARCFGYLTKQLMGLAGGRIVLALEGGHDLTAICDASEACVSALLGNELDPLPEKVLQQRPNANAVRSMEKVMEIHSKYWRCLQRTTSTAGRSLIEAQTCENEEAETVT
Procedure: A serial dilution of inhibitor beginning at 10-fold of respective IC50-value in assay buffer (25 mM Tris-HCl, pH 8.0, 75 mM KCl, 0.001% Pluronic F-127) was made in a black 96-well microtiter half-area plate (Greiner, Kremsmuenster, Austria). The dilutions were added to 3 nM cdHDAC4wt. Shortly after, the reaction was initiated by adding 20 µM Boc-Lys{TFA}-7-Amino-4-methylcoumarin (Bachem, Bubendorf, Switzerland) as substrate. […] Finally 0.4 mg/mL trypsin was added to split the deacetylated substrate in the fluorescent product which was measured at 450 nm (λEx = 350 nm) (PherStar Plus, BMG Labtech, Ortenberg, Germany). […] The standardized RFUs were plotted against the incubation time. […] Due to this knowledge the data were fitted via non linear regression with GraphPad Prism program to the following equation by Copeland [27]:(2) Y=νs·t+νi−νs/kobs·(1−e^(−kobs·t))+d where vi is the initial slope, vs is the second lower slope, kobs is the respective rate constant, t is time and d the correction for possible data offset.
Afterwards kobs values were plotted against their respective inhibitor concentration.

cdHDAC4wt [2] = biological target: T1, cdHDAC4wt; assay: Michaelis Menten kinetics for mode of action; assay type: biochemical; conditions: increasing Km, essentially unchanged vmax with increasing compound concentration
Procedure: For E677A, F812A, C813S, F871A and H976Y (GoF) 5 nM enzyme were used. […] Signal was developed for 30 min at room temperature and the fluorescence was measured at 450 nm (λEx = 350 nm) in a PherStar Plus (BMG Labtech, Ortenberg, Germany) fluorescence plate reader. […] Afterwards, the product concentration was plotted against the time and v0 (µM/min) was calculated from the resulting slopes. Now the initial velocity was plotted against the substrate concentration and Km was calculated using a Michaelis Menten-Fit in GraphPad Prism. The value of vmax is neglected because enzyme concentration and purity are too inconsistent between the mutant variant to calculate this value appropriate.

cdHDAC4wt [3] = biological target: T1, cdHDAC4wt; assay: Reversibility assay via rapid dilution; residence time from reversibility data; assay type: biochemical; conditions: first order dissociation assumed; read-out: RT (RD), residence time from rapid dilution
Procedure: Rapid dilution was performed by diluting the incubated mixture 100-fold with substrate (Boc-Lys{TFA}-7-Amino-4-methylcoumarin (Bachem, Bubendorf, Switzerland)) with the final substrate concentration being 20 µM. […] A positive control without TZD ligand and a blank without enzyme and TZD ligand were also carried out. […] Once again the final substrate concentration was 20 µM. […] The deacetylated substrate was converted into a fluorescent product by the addition of 0.4 mg/mL trypsin (AppliChem, Darmstadt, Germany). The release of fluorogenic substrate was followed in a microplate reader (PherStar Plus, BMG Labtech, Ortenberg, Germany) at 450 nm (λEx = 350 nm) and correlated the positive control. […] All incubations steps were performed for 60 min at 30 °C and 450 rpm. The substrate was preheated to 30 °C before the rapid dilution step.
The reciprocal values for k equals the residence time of the respective TZD ligand (residence time = koff^−1), which can be compared with the residence times gained from association data.

cdHDAC4 mutant variants = assay: Mutational study: Ki (Cheng-Prusoff from IC50) against cdHDAC4 mutant variants relative to wild type; assay type: biochemical, human; conditions: exchange of S758, D759, E764, T808, F812, F871 and L943
Procedure: To gain an thorough knowledge of the most involved amino acids necessary for molecular recognition of TZD ligands to cdHDAC4wt, a comprehensive mutational study was designed. Amino acids flanking the active site binding pocket in the closed (Figure 5A) and open (Figure 5B) conformation of the enzyme were systematically exchanged and IC50-values of a subset of 25 TZDs were determined against every mutant variant. Because IC50-values depends on the substrate concentration and the Km of the substrate, the Michaelis Menten parameters were determined first using substrate tert-butyl N-[(2S)-1-[(4-methyl-2-oxochromen-7-yl)amino]-1-oxo-6-[(2,2,2-trifluoroacetyl)amino]hexan-2-yl]carbamate (Boc-Lys{TFA}-AMC) in a semi continuous enzyme activity assay (Figure 5C and Figure S1). IC50-values were transformed into binding constant Ki using the Cheng-Prusoff equation to enable a fair comparison of ligand affinities to the respective HDAC4 variant:(1) IC50=(1+[S]/Km)×Ki
A serial dilution of TZD in assay buffer (25 mM TRIS-HCl, 75 mM KCl, 0.001% Pluronic F-127, pH 8.0) was incubated with 1 nM cdHDAC4wt in a black 96-well microtiter plate (Greiner). […] The release of fluorogenic substrate was followed in a microplate reader (PherStar Plus, BMG Labtech, Ortenberg, Germany) at 450 nm (λEx = 350 nm) and correlated to enzyme activity. […]

[4] = biological target: T2, cdHDAC4wt (catalytic domain of human wild type histone deacetylase 4) (Homo sapiens, UniProt P56524); assay: IC50 determination, enzyme activity assay with Boc-Lys{TFA}-AMC; assay type: biochemical; conditions: mean ± SD, N = 3
T2 construct: consists of 410 amino acids (human HDAC4 T648-T1057) and has a molecular weight of 44.2 kDa; His6-SUMO (cleaved yes); made in house; host or cells: E. coli (BL21) DE3 pLysS, pET14b vector
T2 sequence (P56524 648-1057): as above
Procedure: Afterwards the enzymatic reaction was initiated by the addition of 20 µM Boc-Lys{TFA}-7-Amino-4-methylcoumarin (Bachem, Bubendorf, Switzerland) as substrate. […] The deacetylated substrate was converted into a fluorescent product by the addition of 0.4 mg/mL trypsin (AppliChem, Darmstadt, Germany). The release of fluorogenic substrate was followed in a microplate reader (PherStar Plus, BMG Labtech, Ortenberg, Germany) at 450 nm (λEx = 350 nm) and correlated to enzyme activity.
All incubations steps were performed for 60 min at 30 °C and 450 rpm.

| residence time (cdHDAC4wt [1]) | y-intercept of kobs plot (k−3) (cdHDAC4wt [1]) | k3 (cdHDAC4wt [1]) | k−3 (cdHDAC4wt [1]) | mode of inhibition (cdHDAC4wt [2]) | residence time (cdHDAC4wt [3]) | forward isomerization rate constant (k2) (cdHDAC4wt [1]) | koff (cdHDAC4wt [1]) | kon (cdHDAC4wt [1]) | IC50 [4] | Ki (cdHDAC4wt [1]) | SMILES | log10Ki ratio (Ki mutant / Ki wildtype) (cdHDAC4 mutant variants) |
| --- | --- | --- | --- | --- | --- | --- | --- | --- | --- | --- | --- | --- |
| 19 ± 7 min | (8 ± 3) × 10^−4 s^−1 | 1900 ± 100 M⁻¹ s⁻¹ | 0.08 ± 0.03 s^−1 (×10^−2) | competitive inhibitor | 12 ± 3 min |  |  |  |  |  | O=C(COc1ccc(/C=C2\SC(=O)NC2=O)cn1)Nc1nc2ccccc2s1 [5w] |  |
| 11 ± 3 min |  |  |  |  | 29 ± 3 min | 0.003 ± 0.0006 s⁻¹ | 0.0015 ± 0.0004 s⁻¹ |  | 330 ± 20 nM | 650 ± 470 nM | O=C1NC(=O)/C(=C/c2ccc3cc(OCC(=O)N4N=C(c5ccccc5)CC4c4ccccc4F)ccc3c2)S1 (stereo not drawn) [8b] |  |
|  |  |  |  |  | 21 ± 7 min | 0.0035 ± 0.0018 s⁻¹ |  |  | 1400 ± 200 nM |  | O=C1NC(=O)/C(=C/c2ccc3cc(OCC(=O)N4N=C(c5ccc(F)cc5)CC4c4ccco4)ccc3c2)S1 (stereo not drawn) [16c] |  |

Continued, compound first:

| SMILES | residence time (cdHDAC4wt [1]) | y-intercept of kobs plot (k−3) (cdHDAC4wt [1]) | k3 (cdHDAC4wt [1]) | k−3 (cdHDAC4wt [1]) | mode of inhibition (cdHDAC4wt [2]) | residence time (cdHDAC4wt [3]) | forward isomerization rate constant (k2) (cdHDAC4wt [1]) | koff (cdHDAC4wt [1]) | kon (cdHDAC4wt [1]) | IC50 [4] | Ki (cdHDAC4wt [1]) | log10Ki ratio (Ki mutant / Ki wildtype) (cdHDAC4 mutant variants) |
| --- | --- | --- | --- | --- | --- | --- | --- | --- | --- | --- | --- | --- |
| CC(/C=C/C(=O)NO)=C\[C@@H](C)C(=O)c1ccc(N(C)C)cc1 [TSA, Trichostatin A] |  |  |  |  |  |  |  |  |  |  |  | above 1 |
| O=C1NC(=O)/C(=C/c2ccc3cc(OCC(=O)N4N=C(c5ccccc5)CC4c4ccco4)ccc3c2)S1 (stereo not drawn) [8c] | 12 ± 6 min |  |  |  |  | 12 ± 1 min | 0.0021 ± 0.0009 s⁻¹ | 0.0014 ± 0.0007 s⁻¹ | (2.1 ± 0.9) × 10^−3 s^−1 | 1200 ± 100 nM |  |  |
| O=C(COc1ccc2cc(/C=C3\SC(=O)NC3=O)ccc2c1)Nc1ccc(C(F)(F)F)cc1 [7i] | 9.3 ± 0.5 min | 0.0018 s⁻¹ | 100 ± 30 M⁻¹ s⁻¹ | 0.18 ± 0.01 s^−1 (×10^−2) |  | 17 ± 3 min |  |  |  | 1300 ± 100 nM |  |  |
| O=C1NC(=O)/C(=C/c2ccc3cc(OCC(=O)N4N=C(c5ccccc5)CC4c4cccs4)ccc3c2)S1 (stereo not drawn) [8i] | 14 ± 4 min |  |  |  |  | 13 ± 8 min | 0.0054 ± 0.0005 s⁻¹ | 0.0012 ± 0.0003 s⁻¹ | (5.4 ± 0.5) × 10^−3 s^−1 | 340 ± 40 nM | 650 ± 310 nM |  |
| O=C1NC(=O)/C(=C/c2ccc(OCC(=O)N3N=C(c4ccccc4)CC3c3ccc(C(F)(F)F)cc3)cc2)S1 (stereo not drawn) [4d] | 26 ± 11 min |  |  |  |  | 23 ± 6 min | 0.008 ± 0.001 s⁻¹ | 0.0006 ± 0.0003 s⁻¹ | (8 ± 1) × 10^−3 s^−1 | 790 ± 40 nM | 1700 ± 700 nM |  |
| Cc1ccc(C2CC(c3ccc(F)cc3)=NN2C(=O)COc2ccc3cc(/C=C4\SC(=O)NC4=O)ccc3c2)cc1 (stereo not drawn) [16g] |  |  |  |  |  | 15 ± 2 min | 0.0051 ± 0.0011 s⁻¹ |  |  | 460 ± 60 nM |  |  |
